Measurements taken from patent publication EP0337503B1, “Fumigation methods and compositions” (Entek Corporation, priority 1983, dated 1984).

How the values were obtained:
[1] = system: root-knot nematode larvae (Meloidogyne incognita); test: Greenhouse nematocide experiment with tomato plants, soil drench, root gall count; format: in vivo; details: 30 days; for Gall Counts, replicate 3: control 1; for Gall Counts, Mean: control 4.0; for Gall Counts, replicate 2: control 7; for Gall Counts, replicate 1: control 4
Protocol: In the experiment, thirty containers are used, each containing about 500 grams of sterilized sandy loam soil. Each container contains one tomato plant. Each container is injected with four 5-milliliter portions of extract from nematode-infested pepper roots, one inch below the soil surface, producing an initial population of 2000 root-knot nematode larvae (Meloidogyne incognita) per container.
Ten treatments are replicated three times, each treatment consisting of drenching the soil with a solution containing the fumigant to provide the dosage of CS2 given in the following table. The solutions are diluted with sufficient water to saturate the soil. The treatments include calcium tetrathiocarbonate, stabilized ammonium tetrathiocarbonate, and carbon disulfide at three levels, plus an untreated control. After drenching, each container is allowed to stand at ambient conditions. The plants are harvested after 30 days of growth, and soil is removed from the roots by a gentle washing with water. By use of a magnifying glass, the number of root galls is counted on each plant.
Results are summarized below, wherein the "Application" represents milligrams of treatment per kilogram of soil, calculated as the thiocarbonate salt and the equivalent carbon disulfide. Gall counts are mean values from the three replicates.

nematode larvae = test: In-vitro nematocidal test: larvae treated in aqueous suspension, injected into root zone of tomato plants, gall count; format: in vivo, Meloidogyne incognita; details: for Gall Count, replicate 2: control 88; for Gall Count, Mean: control 89; for Gall Count, replicate 1: control 90
Protocol: The procedure of Example 2 is repeated except that potassium tetrathiocarbonate is substituted for stabilized ammonium tetrathiocarbonate and an in-vitro nematocidal test is used. In the in-vitro test, the nematode larvae are treated in aqueous suspension for 1 hour at the concentrations of fumigant given in the following table, washed twice with water, and injected into the active root zone of the tomato plants. After thirty days the roots are harvested, examined for galling, giving the results summarized below.

[2] = Effect of pH on production of CS2 from thiocarbonates in citrate-phosphate buffers, gas chromatography of air; format: physicochemical
Protocol: Pure carbon disulfide is also injected, for comparison. A syringe is used to periodically sample air in the bottle, and the air is analyzed by gas chromatography.

[3] = Rate of carbon disulfide loss from solutions, nitrogen bubbling, mass spectrometer; format: physicochemical; details: undiluted: Prep. 1 100%; pure carbon disulfide for comparison
Protocol: The rate at which carbon disulfide is lost from diluted ammonium thiocarbonate compositions is determined by bubbling nitrogen through the solutions, and measuring the carbon disulfide content of the gas which leaves the solution, using a mass spectrometer.
In the determination, the solution, corresponding to that of Preparation 1 (containing 14.1 percent by weight carbon disulfide), is compared to pure carbon disulfide, and to serial dilutions of the Preparation 1 solution with water, which prepared 10, 1 and 0.1 volume percent solutions of the original composition.
Results are as tabulated, wherein k is the calculated first order rate constant for loss of carbon disulfide, and t is the solution half-life.

[4] = Decomposition in sandy loam soil at different moisture, CS2 in air space by gas chromatography; format: physicochemical; details: hours to maximum CS2 concentration in the air space
Protocol: A sandy loam soil is placed in 1-liter glass bottles, fitted with stoppers having fluorocarbon liners and silicone rubber septa, to give a soil depth of about 4 cm. […] Thiocarbonate solution or carbon disulfide is injected near the bottom of the soil layer, the bottles are promptly sealed, and the air space in the bottles is sampled at intervals with a syringe, for gas chromatographic analysis of CS2. Results are summarized below, wherein degradation time is the number of hours required to achieve the maximum CS2 concentration in the air space.

[5] = highest application: 638/89 ppm ((NH4)2CS4·(NH4)2S), 730/91 (CaCS4), 97 ppm (CS2)
[6] = lowest application: 213/30 ppm ((NH4)2CS4·(NH4)2S), 245/31 (CaCS4), 32 ppm (CS2)
[7] = middle application: 425/60 ppm ((NH4)2CS4·(NH4)2S), 490/61 (CaCS4), 65 ppm (CS2)
[8] = 10 ppm CS2, larvae treated 1 hour
[9] = 20 ppm CS2, larvae treated 1 hour

S=C=S [CS2, carbon disulfide, reference compound]
Gall Counts, replicate 3 [1, 5]: 9 | Gall Counts, Mean [1, 5]: 20.0 | Gall Counts, replicate 2 [1, 5]: 24 | Gall Counts, replicate 1 ([1]; highest application: 638 ppm salt/89 ppm Eq. CS2 ((NH4)2CS4·(NH4)2S), 730/91 (CaCS4), 97 ppm (CS2)): 27 | Gall Counts, replicate 3 [1, 6]: 12 | Gall Counts, Mean [1, 6]: 22.0 | Gall Counts, replicate 2 [1, 6]: 23 | Gall Counts, replicate 1 ([1]; lowest application: 213 ppm salt/30 ppm Eq. CS2 ((NH4)2CS4·(NH4)2S), 245/31 (CaCS4), 32 ppm (CS2)): 31 | Gall Counts, replicate 3 [1, 7]: 33 | Gall Counts, Mean [1, 7]: 26.7 | Gall Counts, replicate 2 [1, 7]: 19 | Gall Counts, replicate 1 ([1]; middle application: 425 ppm salt/60 ppm Eq. CS2 ((NH4)2CS4·(NH4)2S), 490/61 (CaCS4), 65 ppm (CS2)): 28 | Gall Count, replicate 2 (nematode larvae; [8]): 149 | Gall Count, Mean (nematode larvae; [8]): 106.5 | Gall Count, replicate 1 (nematode larvae; [8]): 64 | Gall Count, replicate 2 (nematode larvae; [9]): 73 | Gall Count, Mean (nematode larvae; [9]): 51.0 | Gall Count, replicate 1 (nematode larvae; [9]): 29 | Half-life (minutes) for production of carbon disulfide ([2]; pH 5.2, 125 milligrams per liter of thiocarbonate ion): 1 min | Half-life (minutes) for production of carbon disulfide ([2]; pH 6.0, 125 milligrams per liter of thiocarbonate ion): 1 min | Half-life (minutes) for production of carbon disulfide ([2]; pH 7.0, 125 milligrams per liter of thiocarbonate ion): 1 min | Half-life (minutes) for production of carbon disulfide ([2]; pH 8.0, 125 milligrams per liter of thiocarbonate ion, CaCS4 values above pH 7 called unreliable): 1 min | k, calculated first order rate constant for loss of carbon disulfide [3]: 2.0 (1)/(hour) | Degradation Time ([4]; Soil Moisture 0 % of Saturation): 3.5 h | Degradation Time ([4]; Soil Moisture 50 % of Saturation): 3.5 h | Degradation Time ([4]; Soil Moisture 100 % of Saturation): 3.5 h
